From article PMC9603864, “Novel Class of Proteasome Inhibitors: In Silico and In Vitro Evaluation of Diverse Chloro(trifluoromethyl)aziridines” (International Journal of Molecular Sciences, 2022) come the findings set out here.

SMILES strings stand for the structures. Read-outs that look alike come from different tables or passages of the source.

What all share (type): biochemical
The target in assay [1] is T1, 20S proteasome β5 subunit (chymotrypsin-like activity) (Homo sapiens, UniProt P28074).
T1 construct: gene PSMB5; whole human 20S proteasome (Biomol); with other subunits of the 20S proteasome
T1 sequence (P28074 60-263): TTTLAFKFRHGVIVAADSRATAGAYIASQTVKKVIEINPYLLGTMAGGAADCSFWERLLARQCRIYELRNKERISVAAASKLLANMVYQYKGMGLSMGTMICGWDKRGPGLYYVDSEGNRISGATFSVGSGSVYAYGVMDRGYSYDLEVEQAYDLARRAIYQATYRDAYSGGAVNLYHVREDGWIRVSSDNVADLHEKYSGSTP
The assay is described as follows: fluorometric ChT-L assay with Suc-LLVY-AMC, continuous; IC50 […], Ki by Cheng-Prusoff.

Assay [2] addresses T1, 20S proteasome β5 subunit (chymotrypsin-like activity). The assay is described as above. This is another data set of the same source.
For assay [3] the target is unchanged. The assay is described as follows: fluorometric ChT-L screening assay, % inhibition at […]. The note with it: read-out: ChT-L Activity (% Inhibition at 20 μM) ^1.

The term Ki denotes the dissociation constant of the complex between target and ligand, obtained from inhibition or displacement. Low values mean higher affinity, high ones lower affinity. As a reminder, the inhibition is how much of the control response was suppressed.

`FC(F)(F)C1(Cl)CN1c1ccc(N=Nc2ccccc2)cc1` (centres unmarked) [compound 22, CTMA 22] showed a Ki in assay [1] of 1.6 ± 0.08 µM.

In the case of `FC(F)(F)C1(Cl)CN1c1ccc2cc3ccccc3cc2c1` (centres unmarked) [compound 21, CTMA 21], the Ki in assay [2] was 1.6 ± 0.13 µM.

As for `FC(F)(F)C1(Cl)CN1c1ccc(N2CCOCC2)cc1` (centres unmarked) [compound 23, CTMA 23], the inhibition at 20 µM in assay [3] was 41 ± 1.2%.

As for `N#Cc1ccc(N2CC2(Cl)C(F)(F)F)cc1` (centres unmarked) [compound 18, CTMA 18], the inhibition at 20 µM in assay [3] is 37 ± 0.5%.

For `O=C1CCCN1c1cccc(N2CC2(Cl)C(F)(F)F)c1` (centres unmarked) [compound 25, CTMA 25], the inhibition at 20 µM in assay [3] was found to be 34 ± 1.4%.
